The source of these data is EP1266900A1, “Carbamates of rapamycin” (Wyeth, priority 1992, dated 1994).

The IC50 is the midpoint of a concentration-inhibition curve.

Counter-ions that a name gives are not always drawn. Like-named read-outs stand apart in the source and are kept apart here.

One assay deals with pinch skin graft. Description: pinch skin graft survival time, in vivo. To be noted: dose of 4 mg/kg, intraperitoneally or orally, untreated grafts usually rejected within 6-7 days. More on the design: species or system male C3H(H-2K) recipients. The method, then: (§1) Immunosuppressive activity for representative compounds of this invention was evaluated in an in vitro standard pharmacological test procedure to measure lymphocyte proliferation (LAF) and in an in vivo standard pharmacological test procedure which evaluated the survival time of a pinch skin graft.
Representative compounds of this invention were also evaluated in an in vivo test procedure designed to determine the survival time of pinch skin graft from male BAB/c donors transplanted to male C3H(H-2K) recipients. The method is adapted from Billingham R.E. and Medawar P.B., J. Exp. Biol. 28:385-402, (1951). Briefly, a pinch skin graft from the donor was grafted on the dorsum of the recipient as a allograft, and an isograft was used as control in the same region. The recipients were treated with either varying concentrations of test compounds intraperitoneally or orally. Rapamycin was used as a test control. Untreated recipients serve as rejection control. The graft was monitored daily and observations were recorded until the graft became dry and formed a blackened scab. This was considered as the rejection day. The mean graft survival time (number of days ± S.D.) of the drug treatment group was compared with the control group. […] Results are expressed as the mean survival time in days. Untreated (control) pinch skin grafts are usually rejected within 6-7 days. The results shown in Table 1 are based on a dose of 4 mg/kg of test compound. A survival time of 12.0 ± 1.7 days was obtained for rapamycin at 4 mg/kg.

Assay [1] deals with cells from the thymus of normal BALB/c mice. Description: comitogen-induced thymocyte proliferation procedure (LAF). In kind it is cell-based. To be noted: for IC50: read-out: LAF IC50; for LAF (ratio): ratio compared with rapamycin, greater than 1 = inhibited thymocyte proliferation to a greater extent than rapamycin. Here is the method:
as §1
The comitogen-induced thymocyte proliferation procedure (LAF) was used as an in vitro measure of the immunosuppressive effects of representative compounds. Briefly, cells from the thymus of normal BALB/c mice are cultured for 72 hours with PHA and IL-1 and pulsed with tritiated thymidine during the last six hours. Cells are cultured with and without various concentrations of rapamycin, cyclosporin A, or test compound. Cells are harvested and incorporated radioactivity is determined. Inhibition of lymphoproliferation is assessed as percent change in counts per minute from non-drug treated controls. For each compound evaluated, rapamycin was also evaluated for the purpose of comparison. An IC50 was obtained for each test compound as well as for rapamycin. […] A positive ratio indicates immunosuppressive activity. […] Calculation of the ratio is shown below. (()^3 H-control thymus cells -)/(()^3 H-control thymus cells -)(()^3 H-rapamycin-treated thymus cells)/(()^3 H-test compound-treated cells) [formula]

[2] abbreviates: thymocytes cultured for 72 hours with PHA and IL-1, tritiated thymidine incorporation.

Regarding `CO[C@H]1C[C@@H]2CC[C@@H](C)[C@@](O)(O2)C(=O)C(=O)N2CCCC[C@H]2C(=O)O[C@H]([C@H](C)C[C@@H]2CC[C@@H](OC(=O)NCc3cccnc3)[C@H](OC)C2)CC(=O)[C@H](C)/C=C(\C)[C@@H](O)[C@@H](OC)C(=O)[C@H](C)C[C@H](C)/C=C/C=C/C=C/1C` [Example 13, Rapamycin 42-ester with 3-pyridinylmethyl carbamic acid hydrochloride salt], the “Skin Graft (days ± SD), mean survival time” value (from here on “Skin Graft (days ± SD)”) in the assay on pinch skin graft (hydrochloride salt, 4 mg/kg) stood at 9.50 ± 0.6 days. Also, the IC50 in assay [1] (thymocytes cultured for 72 hours with PHA and IL-1, tritiated thymidine incorporation, hydrochloride salt) stood at 0.9 nM.
For `CO[C@H]1C[C@@H]2CC[C@@H](C)[C@@](O)(O2)C(=O)C(=O)N2CCCC[C@H]2C(=O)O[C@H]([C@H](C)C[C@@H]2CC[C@@H](OC(=O)NCc3ccncc3)[C@H](OC)C2)CC(=O)[C@H](C)/C=C(\C)[C@@H](O)[C@@H](OC)C(=O)[C@H](C)C[C@H](C)/C=C/C=C/C=C/1C` [Example 14, Rapamycin 42-ester with 4-pyridinylmethyl carbamic acid], the “Skin Graft (days ± SD)” value in the assay with pinch skin graft is given as 9.17 ± 1.7 days. For the same molecule, the IC50 in assay [1] (Mus musculus, Thymocyte, 72 h, thymocytes cultured for 72 hours with PHA and IL-1, tritiated thymidine incorporation) turned out to be 0.5 nM. Also, the “LAF (ratio)” value in assay [1] was determined as 3.8.
`CO[C@H]1C[C@@H]2CC[C@@H](C)[C@@](O)(O2)C(=O)C(=O)N2CCCC[C@H]2C(=O)O[C@H]([C@H](C)C[C@@H]2CC[C@@H](O)[C@H](OC)C2)CC(=O)[C@H](C)/C=C(\C)[C@@H](O)[C@@H](OC)C(=O)[C@H](C)C[C@H](C)/C=C/C=C/C=C/1C` [rapamycin, Rapamycin]: the “Skin Graft (days ± SD)” value with pinch skin graft stood at 12.0 ± 1.7 days. The IC50 in assay [1] (Mus musculus, Thymocyte, 72 h) lay in the range of 2.2 to 9.9 nM.
Turning to “Rapamycin 42-ester with 2-(2-aminoethoxy)ethyl carbamic acid [Example 21]”, in the assay with pinch skin graft, the “Skin Graft (days ± SD)” value is reported as 10.4 ± 0.5 days. In assay [1], the “LAF (ratio)” value is reported as 0.6. Further, in assay [1] (setting [2]), the IC50 was found to be 6 nM.
The matching figures for “Rapamycin 42-ester with 2-pyridinylmethyl carbamic acid hydrochloride salt [Example 11]”: 11.40 ± 0.9 days, 5.0 and 0.7 nM.
